The source made the active and inactive calls.
Key:
[1] = target: T1, DNA repair protein RAD52 homolog (Homo sapiens, UniProt P43351); assay type: functional, biochemical
T1 sequence (P43351 whole entry): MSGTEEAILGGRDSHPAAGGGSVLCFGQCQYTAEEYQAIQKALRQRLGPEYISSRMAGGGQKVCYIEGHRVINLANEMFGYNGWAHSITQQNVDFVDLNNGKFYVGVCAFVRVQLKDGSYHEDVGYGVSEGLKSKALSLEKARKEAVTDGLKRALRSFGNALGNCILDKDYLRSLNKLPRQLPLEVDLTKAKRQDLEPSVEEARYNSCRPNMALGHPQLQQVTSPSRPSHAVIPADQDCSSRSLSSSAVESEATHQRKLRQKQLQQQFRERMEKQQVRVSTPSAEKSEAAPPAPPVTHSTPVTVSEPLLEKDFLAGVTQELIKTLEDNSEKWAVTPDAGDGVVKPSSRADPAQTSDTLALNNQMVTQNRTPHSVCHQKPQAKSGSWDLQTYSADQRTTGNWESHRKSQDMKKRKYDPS

[2] = NIH-3T3 fibroblast cytotoxicity, dose response, cytotoxicity control, cell-based, fluorescence, Alamar Blue, secondary assay (AID 2327); assay type: functional;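 further: NIH-3T3 mouse fibroblasts cultured with fluconazole at 8 µg/mL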
[3] = fluconazole-exposed Candida albicans growth modulators – fluorescence, retest, confirmation (AID 2467); assay type: functional, cell-based
[4] = target: T2, Serine/threonine-protein phosphatase (Candida dubliniensis (strain CD36 / CBS 7987 / NCPF 3949 / NRRLY-17841) (Yeast), UniProt B9W6M3); test: blockers of CaCl2-induced CDRE-lacZ signaling – S. cerevisiae, luminescence, secondary, dose response (AID 2388); assay type: functional, cell-based;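 further: yeast reporter cells carrying a calcineurin-responsive lacZ construct stimulated with calcium chloride; luminescent beta-galactosidase reporter signal in whole cells rather than isolated phosphatase activity; potency for inhibition where a drop in reporter signal means calcineurin blockade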
T2 sequence (B9W6M3 whole entry): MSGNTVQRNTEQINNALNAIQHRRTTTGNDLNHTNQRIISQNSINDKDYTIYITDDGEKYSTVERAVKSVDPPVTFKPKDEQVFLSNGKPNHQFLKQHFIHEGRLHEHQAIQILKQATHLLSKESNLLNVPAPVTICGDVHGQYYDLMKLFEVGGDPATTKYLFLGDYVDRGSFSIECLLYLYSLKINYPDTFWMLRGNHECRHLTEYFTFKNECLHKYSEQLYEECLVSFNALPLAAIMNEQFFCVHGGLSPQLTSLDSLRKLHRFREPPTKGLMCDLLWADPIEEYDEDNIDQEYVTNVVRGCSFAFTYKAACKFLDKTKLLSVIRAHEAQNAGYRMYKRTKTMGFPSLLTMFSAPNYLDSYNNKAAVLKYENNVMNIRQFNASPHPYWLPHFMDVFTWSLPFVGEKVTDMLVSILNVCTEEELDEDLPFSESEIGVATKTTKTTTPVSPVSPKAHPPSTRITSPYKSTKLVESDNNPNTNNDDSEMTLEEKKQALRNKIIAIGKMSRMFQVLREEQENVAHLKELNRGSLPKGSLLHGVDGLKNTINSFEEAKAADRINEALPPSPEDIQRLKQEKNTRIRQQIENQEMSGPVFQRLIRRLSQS

[5] = target: ATP-dependent molecular chaperone HSP82 (Candida albicans (strain WO-1) (Yeast), UniProt C4YTQ8); test: steroid-induced GRE reporter decrease in yeast – S. cerevisiae, luminescence, Hsp90 inhibitor project, dose response (AID 2400); assay type: functional, cell-based;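 further: beta-galactosidase luminescence from glucocorticoid response element reporter as proxy for Hsp90 function; inhibitor potency where signal loss means Hsp90 inhibition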
cells = assay type: functional, cell-based
[6] = target: T3, Nuclear receptor subfamily 0 group B member 1 (Homo sapiens, UniProt P51843); assay type: functional, cell-based;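 further: HEK293T cells transfected with SF-1 and DAX-1 plus StAR promoter luciferase reporter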
T3 sequence (P51843 whole entry): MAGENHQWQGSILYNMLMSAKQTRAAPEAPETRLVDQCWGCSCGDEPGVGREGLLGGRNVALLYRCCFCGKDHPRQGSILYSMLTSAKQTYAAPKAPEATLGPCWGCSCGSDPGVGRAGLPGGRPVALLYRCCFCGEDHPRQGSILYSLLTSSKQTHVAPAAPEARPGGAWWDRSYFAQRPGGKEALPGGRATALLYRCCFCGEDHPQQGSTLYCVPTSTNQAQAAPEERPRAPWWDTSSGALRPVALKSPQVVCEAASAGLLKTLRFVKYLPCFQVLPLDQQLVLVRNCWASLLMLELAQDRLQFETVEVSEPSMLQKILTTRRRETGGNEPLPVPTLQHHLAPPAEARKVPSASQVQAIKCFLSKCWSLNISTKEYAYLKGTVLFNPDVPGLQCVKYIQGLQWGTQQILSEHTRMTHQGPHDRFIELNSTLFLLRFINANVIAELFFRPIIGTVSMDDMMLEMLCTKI

[7] = Luminescence Cell-Based Dose Retest to Confirm Inhibitors of Cancer Stem Cells. [Related pubchem assays (depositor defined):AID2717, AID2721]; assay type: functional; conditions: Homo sapiens
[8] = reduction of Shn3 3'UTR-driven luciferase in osteoblasts – cell-based, Clone20 osteoblasts, firefly luciferase, cherry-picked, dose response (AID 624132); assay type: functional;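 further: firefly luciferase luminescence from reporter carrying the Shn3 3'UTR in osteoblasts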
[9] = loss of viability in HepG2 cells – cell-based, CellTiter-Glo, cherry-picked, cytotoxicity control for Shn3 inhibitor project, dose response (AID 624134); assay type: functional
[10] = non-specific 3'UTR reporter inhibition in Clone20-Shn3RL – cell-based, Renilla luciferase, cherry-picked, counter-screen for Shn3 inhibitor project, dose response (AID 624133); assay type: functional
[11] = Fluorescence-based cell-based high throughput dose response assay for inhibitors of the interaction of nucleotide-binding oligomerization domain containing 2 (NOD2) and the receptor-interacting serine-threonine kinase 2 (RIPK2).; assay type: functional; conditions: Homo sapiens
[12] = luciferase reporter signal suppression in cells – H4 neuroglioma cells, luminescence, dose response (AID 1990); assay type: functional, cell-based
[13] = tested on: Streptococcus sp. 'group A'; test: Streptococcus pyogenes SK(-)GAS viability under kanamycin – luminescence, BacTiterGlo, confirmation, counter-screen for streptokinase expression inhibitor project, dose response (AID 1900); assay type: functional, organism-based
[14] = Luminescence Cell-Based Dose Response HTS to Identify Inhibitors of 5'UTR Stem-Loop Driven Prion Protein mRNA Translation in H4 Neuroglioblastoma Cells. [Related pubchem assays: 1827 (Project Summary), 1813 (Primary HTS)]; assay type: functional
[15] = alpha-synuclein stem-loop luciferase translation blockers – H4 neuroglioma cells, luminescence, confirmation (AID 1988); assay type: functional, cell-based
Streptococcus = test: GAS UMAA2166 growth inhibition – luminescence, BacTiterGlo, counter-screen for streptokinase expression inhibitor project, dose response (AID 1915); assay type: functional, organism-based;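 further: potency for reduction of bacterial viability or growth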
Paired box protein Pax-8 = Paired box protein Pax-8 (Homo sapiens, UniProt Q06710); test: PAX8 transcriptional activity inhibition in RMG-I – RMG-I cells, luciferase, cherry-pick, dose response (AID 687027); assay type: functional, cell-based;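 further: luciferase reporter driven by Pax8 target thyroperoxidase promoter measured by SteadyGlo luminescence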
[16] = OVCAR8 cell viability loss – plate reader, dry powder samples, PAX8 project, dose response (AID 743197); assay type: functional, cell-based; conditions: OVCAR-8

Chain of ATP-dependent molecular chaperone HSP82 (C4YTQ8 whole entry): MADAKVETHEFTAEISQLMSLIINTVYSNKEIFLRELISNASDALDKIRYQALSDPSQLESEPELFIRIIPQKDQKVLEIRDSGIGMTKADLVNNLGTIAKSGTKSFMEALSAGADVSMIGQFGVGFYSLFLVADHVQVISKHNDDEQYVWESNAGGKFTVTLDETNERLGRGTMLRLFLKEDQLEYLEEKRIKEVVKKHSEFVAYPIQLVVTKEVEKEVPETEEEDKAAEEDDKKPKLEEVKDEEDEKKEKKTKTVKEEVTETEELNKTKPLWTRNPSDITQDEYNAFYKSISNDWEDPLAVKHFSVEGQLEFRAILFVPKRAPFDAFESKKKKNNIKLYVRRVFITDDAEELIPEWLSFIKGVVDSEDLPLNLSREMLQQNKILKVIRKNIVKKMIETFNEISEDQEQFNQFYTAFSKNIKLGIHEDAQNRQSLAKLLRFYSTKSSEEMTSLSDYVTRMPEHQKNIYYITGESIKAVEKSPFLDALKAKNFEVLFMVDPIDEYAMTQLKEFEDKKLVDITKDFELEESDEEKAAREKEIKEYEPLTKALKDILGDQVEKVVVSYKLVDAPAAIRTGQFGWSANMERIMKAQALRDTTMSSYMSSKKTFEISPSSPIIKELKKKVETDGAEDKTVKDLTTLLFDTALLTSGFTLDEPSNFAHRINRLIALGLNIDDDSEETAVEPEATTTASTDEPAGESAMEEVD
Chain of Paired box protein Pax-8 (Q06710 whole entry): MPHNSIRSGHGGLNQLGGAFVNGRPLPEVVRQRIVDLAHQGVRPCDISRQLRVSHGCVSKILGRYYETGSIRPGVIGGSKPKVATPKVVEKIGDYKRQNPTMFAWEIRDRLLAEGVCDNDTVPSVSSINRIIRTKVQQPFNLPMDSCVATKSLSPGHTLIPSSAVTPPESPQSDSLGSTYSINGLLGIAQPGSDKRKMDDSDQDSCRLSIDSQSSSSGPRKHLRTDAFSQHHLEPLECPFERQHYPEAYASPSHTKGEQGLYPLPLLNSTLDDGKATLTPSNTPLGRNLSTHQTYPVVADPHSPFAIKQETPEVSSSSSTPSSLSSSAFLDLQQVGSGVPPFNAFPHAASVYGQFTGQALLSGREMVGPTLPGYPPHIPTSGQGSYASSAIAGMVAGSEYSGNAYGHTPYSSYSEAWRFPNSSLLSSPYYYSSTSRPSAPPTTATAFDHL

Question: For `CCOC(=O)c1c(C)n(-c2ccc(C)cc2)c2ccc(OCC(O)CN3CCN(C)CC3)cc12` (stereo not given), which AC50 [1] is on record?
Answer: The AC50 was 6.54 µM (active).

Question: Which results are given for `O=C(Oc1cc2oc(=O)c3c(c2cc1Cl)CCCC3)c1cccs1`?
Answer: EC50 [2]: > 150 µM (inactive); EC50 [3]: 1.12 µM (active); EC50 [4]: > 180 µM (inactive); EC50 [5]: 21.4 µM (active)

Question: For `CN(CCC#N)c1ccc(/C=C(\C#N)c2ccccn2)cc1`, which IC50 (cells) is on record?
Answer: The IC50 was > 67.5 µM (inactive).

Question: What about the IC50 [6] of the same compound?
Answer: Its IC50 is > 834 nM (active).

Question: Which AC50 [7] does the source give for `O=[N+]([O-])/C=C/c1cn(Cc2ccc(Cl)cc2)c2ccccc12` here?
Answer: The AC50 was 1.88 µM (active).

Question: What about the AC50 [8] of the same compound?
Answer: Its AC50 is 8.32 µM (active).

Question: What about the AC50 [9] of the same compound?
Answer: The AC50 was 5.81 µM (active).

Question: And the AC50 [10]?
Answer: Its AC50 is 21.2 µM (active).

Question: And the IC50 [11]?
Answer: Its IC50 is 6.98 µM (active).

Question: What does the source list for `Cc1cccc(C(=O)CC(=O)c2cc(Cl)ccc2O)c1`?
Answer: EC50 [2]: 34.3 µM (active); EC50 [12]: 8.03 µM (active); EC50 [13]: 1.01 µM (active); EC50 [14]: 9.23 µM (active); EC50 [15]: 5.25 µM (active); EC50 [3]: 1.09 µM (active); EC50 [4]: > 180 µM (inactive); EC50 (Streptococcus): 1.61 µM (active); EC50 [5]: 3.18 µM (active)

Question: What does the source list for `CCC1(O)CC2CN(CCc3c([nH]c4ccccc34)C(C(=O)OC)(c3cc4c(cc3OC)N(C=O)C3C(O)(C(=O)OC)C(OC(C)=O)C5(CC)C=CCN6CCC43C65)C2)C1` (stereo not given)?
Answer: IC50 (cells): > 67.5 µM (inactive); IC50 [6]: 386 nM (active)

Question: For `N#Cc1cccc(-c2ccc3c(c2)[C@@H]2[C@@H](CCN2C(=O)C2CCCCC2)[C@@H](CO)N3)c1`, which AC50 (Paired box protein Pax-8) is on record?
Answer: Its AC50 is 17.8 µM (active).

Question: What about the AC50 [16] of the same compound?
Answer: The AC50 was 61.9 µM (active).

From ChEMBL document CHEMBL1201862, “PubChem BioAssay data set” (2004)
